Earlier results as cited in US7638299B2, “Biosynthetic polypeptides utilizing non-naturally encoded amino acids” (Ambrx, Inc., priority 2004, dated 2009).
Where two headings read alike, the source gives them in different places. No end group written: not given here.

Tests used:
[1] = administered subcutaneously
[2] = humans
[3] = Kreymann et al., 1987
NIDDM patients = details: 4 ng/kg/min intravenously, continuously for one week
[4] = in vitro studies and in animals
GLP-1 receptor = biological target: T1, GLP-1 receptor (Rattus norvegicus, UniProt P32301); details: rats
T1 construct: host or cells: live rats (endogenous receptor)
T1 sequence (P32301 22-463): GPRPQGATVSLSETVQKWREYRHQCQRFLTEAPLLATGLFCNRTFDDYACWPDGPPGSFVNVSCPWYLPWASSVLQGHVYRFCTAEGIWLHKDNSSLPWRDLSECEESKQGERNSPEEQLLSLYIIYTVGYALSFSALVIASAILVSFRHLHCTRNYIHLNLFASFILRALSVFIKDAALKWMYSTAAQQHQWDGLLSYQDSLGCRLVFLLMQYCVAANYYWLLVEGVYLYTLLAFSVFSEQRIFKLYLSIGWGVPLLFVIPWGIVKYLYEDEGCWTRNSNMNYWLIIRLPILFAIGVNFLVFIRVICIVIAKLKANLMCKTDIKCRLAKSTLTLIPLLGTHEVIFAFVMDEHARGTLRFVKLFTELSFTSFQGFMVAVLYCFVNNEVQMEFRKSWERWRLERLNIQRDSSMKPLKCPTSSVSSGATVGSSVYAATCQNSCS

[5] = stored at 4° C. (Mojsov)
[6] = U.S. Pat. No. 5,118,666
[7] = intraventricular administration

For “GLP-1(7-36) amide: SEQ ID NO: 1; His-Ala-Glu-Gly-...-Lys-Gly-Arg-X wherein X is NH2 (HAEGTFTSDVSSYLEGQAAKEFIAWLVKGR-NH2; listed as Homo sapiens)”, the time action [1] is listed as “about 50 minutes”.
In the case of “PYY: thirty six amino acid long peptide secreted by endocrine cells of the distal gastrointestinal tract”, the “appetite and food intake” value (lean and obese subjects; administered intravenously, lean and obese subjects) is given as “suppresses appetite and food intake” and the oral activity (lean and obese subjects; oral, low absorption and rapid degradation in the gastrointestinal tract) is given as “negligible”.
In the case of “GLP-1: product of the proglucagon gene, gut incretin hormone”, the food intake (food intake in rats; acute, peripheral administration) is listed as “does not inhibit food intake acutely”, the food intake (food intake in rats; [7]) is listed as “profoundly inhibits food intake” and the plasma half-life [2] is listed as 2 min. For the same substance, the “half-life of circulating GLP-1” value [3] was “about 4 minutes”, the glycaemic control (NIDDM patients) was “dramatically improve glycaemic control” and the side effects (NIDDM patients) was “without significant side effects”.
In the case of enfuvirtide, the toxicity [4] is listed as “non-toxic” and the “inhibition of HIV-1 mediated CD-4+ cell-cell fusion (syncytial formation) and infection of CD-4+ cells by cell-free virus” value (HIV-1) is listed as “potent inhibitor”.
For “N-terminally extended GLP-1 (PG 72-107)amide: N-terminally extended GLP-1, proglucagon 72-107 amide (QDFVQWLMNTKRNRNNIAKRHDEFERHAEGTFTSDV-NH2; UniProt P01275 72-107, looked up, fragment)”, the food intake (food intake in rats; [7]) is given as “inactive”.
In the case of exendin 9-39, the “incretin effect elicited by oral glucose” value (GLP-1 receptor) is listed as “dramatically reduces the incretin effect” and the “antagonism of the GLP-1 effect on food intake” value (food intake in rats; appropriate doses of the GLP-1 antagonist) is listed as “abolish the effects of GLP-1”.
For “GLP-1(7-37): SEQ ID NO: 2; His-Ala-Glu-Gly-...-Lys-Gly-Arg-X wherein X is Gly”, the “appearance of by-products on storage” value [5] is given as “have been found as early as eleven months after sample preparation”, the biological half-life [6] is given as 3 to 5 minutes and the serum half-life [6] is given as 3 to 5 min.
